Key:
Type in all cases: in vivo
β-glucocerebrosidase = target: T1, β-glucocerebrosidase (Mus musculus, UniProt P17439); assay: Epidermal β-glucocerebrosidase activity after topical BrCBE; details: topical BrCBE 325 nmol once daily
T1 construct: from tissue; host or cells: epidermis of hairless mice (Simonsen Laboratories, Gilroy, Calif.)
T1 sequence (P17439 20-515): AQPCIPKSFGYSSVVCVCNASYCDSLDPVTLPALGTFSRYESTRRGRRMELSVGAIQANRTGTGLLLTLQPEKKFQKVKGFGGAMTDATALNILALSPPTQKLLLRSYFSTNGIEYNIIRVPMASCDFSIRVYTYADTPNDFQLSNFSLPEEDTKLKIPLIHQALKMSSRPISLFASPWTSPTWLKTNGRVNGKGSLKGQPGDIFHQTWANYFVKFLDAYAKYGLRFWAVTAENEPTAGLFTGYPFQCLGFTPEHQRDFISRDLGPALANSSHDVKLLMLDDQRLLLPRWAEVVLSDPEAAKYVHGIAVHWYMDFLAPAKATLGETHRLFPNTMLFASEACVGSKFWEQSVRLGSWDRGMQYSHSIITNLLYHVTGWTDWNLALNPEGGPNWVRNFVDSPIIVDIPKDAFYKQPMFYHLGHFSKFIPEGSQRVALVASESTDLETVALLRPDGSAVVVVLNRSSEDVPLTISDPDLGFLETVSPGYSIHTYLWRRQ
Procedure: (§1) To determine whether inhibitors of β-glucocerebrosidase would cause more profound effects than applications of exogenous GlcCER alone (examples 5&6), we next applied the specific, suicide inhibitor, bromoconduritol-B-epoxide (BrCBE) to intact hairless mouse skin (Simonsen Laboratories, Gilroy, Calif.) (Holleran, W. M. et al., J. Clin. Invest. (1993) 91:1656-1664). BrCBE (325 nmol in 20 μl propylene glycol:ethanol, 7:3 vols) was applied once daily for 0-14 days. (Holleran, W. M. et al. (1994) J. Clin. Inv. 93:1756-1764)

[1] = system: intact hairless mouse skin; assay: Transepidermal water loss after topical application; details: BrCBE 325 nmol topical once daily, after four daily applications
Procedure: as §1
Transepidermal Water Loss was determined by using a MEECO electrolytic water analyzer (MEECO, Warrington, Pa.). Water loss measurements are recorded over a small area of skin (0.5cm^2) in parts per million/0.5cm^2 per hour over background.

hairless mouse epidermis = assay: Epidermal / stratum corneum lipid content (HPTLC/TLC)
Procedure: Hairless mice were treated with BrCBE for 5 days as described in Example 10. The following high performance thin layer chromatograph (HPTLC) system was developed for optimal separation of ceramides and glucosylceramides for quantitation by spectrodensitometry. Extracts were applied to precleaned 10 ×20 cm HPTLC plates, 0.5 cm from lower edge of the plate and fractionated sequentially in a horizontal developmental chamber (Camag, Muttenz, Switzerland) in the following solvent systems: 1) chloroform:methanol:acetic acid (190:9:1), v/v/v) to the top, twice; 2) chloroform:methanol:acetone (76:20:4, by volume) to 30 mm. Between each development, the plate was dried for 5 minutes on a hot plate (40° C.), cooled for 2 minutes, and equilibrated in the tank with the solvents for 3 minutes. After final development, the plates were dried, cooled, dipped in charring solution (1.5% cupric sulfate in acetic acid:sulfuric acid:orthophosphoric acid:water (50:10:10:30, by volume) for 15 seconds, dried (40° .C) for 5 minutes, and then charred at 180° C. for 15 minutes. Plates were scanned with a variable wavelength scanning densitometer (Camag, Muttenz, Switzerland). Lipid amounts for each fraction were estimated using ceramides 3 and 4, and galactosylceramides 1 and 2 as reference standards (Sigma Chemical Co., St. Louis, Mo.).
The epidermal glucosylceramide content was determined in mice treated with the topical β-glucocerebrosidase inhibitors. Mice were treated with CBE for one day as described in FIG. 22. The mice were sacrificed and whole skin was excised. Subcutaneous fascia and fat were scraped off, and the samples were placed dermis side down onto […] EDTA in PBS-CMF (pH 7.4) and incubated at 37° C. for 40 min. Skin was blotted dry with a tissue and the epidermis was removed by scraping with a surgical blade. The epidermis was minced, placed into microcentrifuge vials, immediately snap frozen and stored in liquid N2 until extracted.
For extraction the tissue was soaked in 7.6 ml Bligh/Dyer extraction media (2 ml chloroform, 4 ml Methanol, 1.6 ml H2O) overnight at room temperature. The following day the tissue was shaken for 20 min. and centrifuged for 10 min. the solvent was removed and the pellet was combined with 7.6 ml Bligh/Dyer media and again shaken and centrifuged. The solvents were combined with solvent from the soaks and filtered through pre-solvent-washed Whatman 43 filter paper, 2 ml chloroform and 2 ml H2O was added to each 7.6 ml quantity of the filtrate and shaken for 10 min. The samples were then centrifuged and the upper phase discarded. The lower phase was washed with 4 ml chloroform, 4 ml MetOH, and 3.6 ml H2O (shaken for 10 min and centrifuged). The upper phase was discarded. The lower phase was dried under N2 in a 47° C. water bath. The lipid was resuspended in chloroform and weighed on the Cahn balance.
TLC was performed using 15-20 μg samples and quantitated against standard glycosylceramide and 40 μg sample for sphingolipids (Holleran, W. M. et al. (1993) J. Clin. Invest. 91:1656-1664).
Both glucosylceramide and ceramide content was then determined in lower (stratum basale) and upper (stratum spinosum, stratum granulosum and stratum corneum) epidermis (FIG. 23). Following 24 hours of CBE treatment samples were excised following treatment (as in Example 16).

hairless mouse skin = assay: Appearance and texture of treated skin
Procedure: as §1

[2] = BrCBE 325 nmol/5cm^2/day, five days

OC1C(O)C(Br)C2OC2C1O (stereo not shown) [BrCBE, bromoconduritol-B-epoxide]
epidermal β-glucocerebrosidase activity, of normal (β-glucocerebrosidase): 5 % of normal
reduction of epidermal β-glucocerebrosidase activity (β-glucocerebrosidase): about 95%
TEWL plateau level (defect in permeability barrier function) [1]: 10-15 times normal
ceramide content, whole epidermis lipid extracts (hairless mouse epidermis; [2]): decrease
epidermal glucosylceramides, whole epidermis lipid extracts (hairless mouse epidermis; [2]): increased
increase in stratum corneum glucosylceramides (hairless mouse epidermis; BrCBE 5 days, vs vehicle-treated and/or untreated murine stratum corneum, FIG. 14): eight to ten
inflammation or edema (hairless mouse skin; BrCBE-treated skin): no indication of inflammation or edema
skin moisture content (hairless mouse skin; BrCBE-treated skin): increased moisture content
skin smoothness and softening of skin surface (hairless mouse skin; BrCBE-treated skin): marked increase
skin wrinkling (hairless mouse skin; BrCBE-treated vs vehicle-treated skin, visual inspection): reduced

Source: patent US6399580B1, “Methods and compositions for stimulating tissue growth and epithelial moisturization” (The Regents of the University of California, priority 1994, dated 2002)
